# In patent US11730720B2, “ALK5 inhibitors” (THERAVANCE BIOPHARMA R&D IP, LLC, priority 2018, dated 2023):
# Columns and labels:
# [1] = molecular target: T1, recombinant human ALK5 (TGF-βR1) protein (Homo sapiens, UniProt P36897); test: Biochemical ALK5 (TGF-βR1) assay to measure pKi (LANCE Ultra ULight kinase assay); details: apparent pKi, converted from pIC50 using the Cheng-Prusoff equation
# T1 construct: purchased Life Technologies PR9075A
# T1 sequence (P36897 34-503): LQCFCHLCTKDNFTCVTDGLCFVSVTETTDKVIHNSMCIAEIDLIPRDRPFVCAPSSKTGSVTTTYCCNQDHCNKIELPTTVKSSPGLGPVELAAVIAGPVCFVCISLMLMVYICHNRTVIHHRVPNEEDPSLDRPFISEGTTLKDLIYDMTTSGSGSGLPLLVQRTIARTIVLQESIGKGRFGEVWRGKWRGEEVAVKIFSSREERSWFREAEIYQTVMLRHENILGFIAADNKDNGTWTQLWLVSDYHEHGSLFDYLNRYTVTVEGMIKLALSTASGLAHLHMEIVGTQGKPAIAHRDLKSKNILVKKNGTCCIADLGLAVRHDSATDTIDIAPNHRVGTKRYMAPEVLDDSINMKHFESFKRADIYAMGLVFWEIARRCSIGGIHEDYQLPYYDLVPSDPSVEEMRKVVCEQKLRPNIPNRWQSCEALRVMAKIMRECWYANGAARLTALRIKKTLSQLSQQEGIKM
# Method in brief: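 TR-FRET kinase format: compound dose range 10 μM–25 pM equilibrated 60 min with human ALK5 and ULight-labelled topoisomerase 2α peptide in HEPES/MgCl2 buffer pH 7.5 with DTT. Reaction started with ATP (125 μM stock, 5× final), 60 min at 37° C, stopped with EDTA/Eu-anti-phospho antibody; pKi derived from pIC50 via Cheng-Prusoff.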
# [2] = test system: TGF-β-stimulated SMAD3 phosphorylation in BEAS-2B cells; test: Cellular ALK5 potency assay, inhibition of TGF-β stimulated pSMAD3 formation in BEAS-2B cells; type: cell-based; details: Homo sapiens, inhibition of TGF-β (10 ng/mL) stimulated pSMAD3 formation, 1 hour compound incubation, read-out: BEAS2B pIC50 (converted)
# Method in brief: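 Phospho-SMAD3 was quantified by AlphaLISA in lysates of human lung epithelial BEAS-2B cells. Compound was added 1 h (37 °C, HEPES/BSA-supplemented HBSS) before a 30 min challenge with 10 ng/mL TGF-β. Values are pIC50 relative to stimulated cells without compound.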
Ki [1] [nM],Compound,IC50 [2] [nM]
0.0398 to 0.316,"Fc1ccc(Cl)cc1-c1n[nH]cc1-c1ccc2ncc(NCC3CNCCN3)cc2n1 (stereo not drawn) [Compound 1-26, 6-[3-(5-chloro-2-fluoro-phenyl)-1H-pyrazol-4-yl]-N-(piperazin-2-ylmethyl)-1,5-naphthyridin-3-amine]",25.1 to 158
≤ 0.0316,"Fc1ccc(Cl)cc1-c1n[nH]cc1-c1ccc2ncc(NCC3CCNCC3)cc2n1 [Compound 1-27, 6-[3-(5-chloro-2-fluoro-phenyl)-1H-pyrazol-4-yl]-N-(4-piperidylmethyl)-1,5-naphthyridin-3-amine]",25.1 to 158
0.0398 to 0.316,"Fc1ccc(Cl)cc1-c1n[nH]cc1-c1ccc2ncc(NCC3CNC3)cc2n1 [Compound 1-28, N-(azetidin-3-ylmethyl)-6-[3-(5-chloro-2-fluoro-phenyl)-1H-pyrazol-4-yl]-1,5-naphthyridin-3-amine]",25.1 to 158
0.0398 to 0.316,"CN1CCN(c2ccc(Nc3cnc4ccc(-c5c[nH]nc5-c5cc(Cl)ccc5F)nc4c3)nc2)CC1 [Compound 1-29, 6-(3-(5-chloro-2-fluorophenyl)-1H-pyrazol-4-yl)-N-(5-(4-methylpiperazin-1-yl)pyridin-2-yl)-1,5-naphthyridin-3-amine]",25.1 to 158
0.0398 to 0.316,"CC(C)N1CCN(c2ccc(Nc3cnc4ccc(-c5c[nH]nc5-c5cc(Cl)ccc5F)nc4c3)nc2)CC1 [Compound 1-30, 6-(3-(5-chloro-2-fluorophenyl)-1H-pyrazol-4-yl)-N-(5-(4-isopropylpiperazin-1-yl)pyridin-2-yl)-1,5-naphthyridin-3-amine]",25.1 to 158
0.0398 to 0.316,"CN(C)C1CN(c2cnc3ccc(-c4c[nH]nc4-c4cc(Cl)ccc4F)nc3c2)C1 [Compound 1-31, 1-(6-(3-(5-chloro-2-fluorophenyl)-1H-pyrazol-4-yl)-1,5-naphthyridin-3-yl)-N,N-dimethylazetidin-3-amine]",≤ 20
0.0398 to 0.316,"NC(=O)C1(N2CCN(c3cnc4ccc(-c5c[nH]nc5-c5cc(Cl)ccc5F)nc4c3)CC2)CCCC1 [Compound 1-32, 1-[4-[6-[3-(5-chloro-2-fluoro-phenyl)-1H-pyrazol-4-yl]-1,5-naphthyridin-3-yl]piperazin-1-yl]cyclopentanecarboxamide]",25.1 to 158
0.398 to 3.16,"CN(C)C1(C)CN(c2cnc3ccc(-c4c[nH]nc4-c4cc(Cl)ccc4F)nc3c2)C1 [Compound 1-33, 1-[6-[3-(5-chloro-2-fluoro-phenyl)-1H-pyrazol-4-yl]-1,5-naphthyridin-3-yl]-N,N,3-trimethyl-azetidin-3-amine]",25.1 to 158
3.98 to 31.6,"O=C(OCc1ccccc1)N1CCC2(CCN(c3cnc4ccc(-c5c[nH]nc5-c5cc(Cl)ccc5F)nc4c3)C2)C1 (stereo not drawn) [Compound 1-35, benzyl 7-[6-[3-(5-chloro-2-fluoro-phenyl)-1H-pyrazol-4-yl]-1,5-naphthyridin-3-yl]-2,7-diazaspiro[4.4]nonane-2-carboxylate]",200 to 1260
0.0398 to 0.316,"OCCN1CCN(c2cnc3ccc(-c4c[nH]nc4-c4cc(Cl)ccc4F)nc3c2)CC1 [Compound 1-36, 2-[4-[6-[3-(5-chloro-2-fluoro-phenyl)-1H-pyrazol-4-yl]-1,5-naphthyridin-3-yl]piperazin-1-yl]ethanol]",25.1 to 158
0.0398 to 0.316,"Fc1ccc(Cl)cc1-c1n[nH]cc1-c1ccc2ncc(N3CC(N4CCCCC4)C3)cc2n1 [Compound 1-40, 2-[3-(5-chloro-2-fluoro-phenyl)-1H-pyrazol-4-yl]-7-[3-(1-piperidyl)azetidin-1-yl]-1,5-naphthyridine]",25.1 to 158
0.0398 to 0.316,"CN(CC1CNC1)c1cnc2ccc(-c3c[nH]nc3-c3cc(Cl)ccc3F)nc2c1 [Compound 1-41, N-(azetidin-3-ylmethyl)-6-[3-(5-chloro-2-fluoro-phenyl)-1H-pyrazol-4-yl]-N-methyl-1,5-naphthyridin-3-amine]",25.1 to 158
0.0398 to 0.316,"CC(C)N1CCN(c2cnc3ccc(-c4c[nH]nc4-c4cc(Cl)ccc4F)nc3c2)CC1 [Compound 1-43, 2-[3-(5-chloro-2-fluoro-phenyl)-1H-pyrazol-4-yl]-7-(4-isopropylpiperazin-1-yl)-1,5-naphthyridine]",25.1 to 158
0.0398 to 0.316,"Fc1ccc(Cl)cc1-c1n[nH]cc1-c1ccc2ncc(N3CCC(N4CCCC4)CC3)cc2n1 [Compound 1-44, 2-[3-(5-chloro-2-fluoro-phenyl)-1H-pyrazol-4-yl]-7-(4-pyrrolidin-1-yl-1-piperidyl)-1,5-naphthyridine]",25.1 to 158
0.0398 to 0.316,"CN(C)C1CCN(c2cnc3ccc(-c4c[nH]nc4-c4cc(Cl)ccc4F)nc3c2)CC1 [Compound 1-45, 1-[6-[3-(5-chloro-2-fluoro-phenyl)-1H-pyrazol-4-yl]-1,5-naphthyridin-3-yl]-N,N-dimethyl-piperidin-4-amine]",≤ 20
0.0398 to 0.316,"Fc1ccc(Cl)cc1-c1n[nH]cc1-c1ccc2ncc(N3CCn4nc(N5CCN(Cc6ccccc6)CC5)nc4C3)cc2n1 [Compound 1-46, 7-[2-(4-benzylpiperazin-1-yl)-6,8-dihydro-5H-[1,2,4]triazolo[1,5-a]pyrazin-7-yl]-2-[3-(5-chloro-2-fluoro-phenyl)-1H-pyrazol-4-yl]-1,5-naphthyridine]",25.1 to 158
0.0398 to 0.316,"Fc1ccc(Cl)cc1-c1n[nH]cc1-c1ccc2ncc(N3CCn4nc(N5CCN(Cc6ccccc6)CC5)cc4C3)cc2n1 [Compound 1-47, 7-[2-(4-benzylpiperazin-1-yl)-6,7-dihydro-4H-pyrazolo[1,5-a]pyrazin-5-yl]-2-[3-(5-chloro-2-fluoro-phenyl)-1H-pyrazol-4-yl]-1,5-naphthyridine]",25.1 to 158
0.398 to 3.16,"Fc1ccc(Cl)cc1-c1n[nH]cc1-c1ccc2ncc(N3CCn4nc(Br)nc4C3)cc2n1 [Compound 1-48, 7-(2-bromo-6,8-dihydro-5H-[1,2,4]triazolo[1,5-a]pyrazin-7-yl)-2-[3-(5-chloro-2-fluoro-phenyl)-1H-pyrazol-4-yl]-1,5-naphthyridine]",≤ 20
0.0398 to 0.316,"CNC1CN(c2cnc3ccc(-c4c[nH]nc4-c4cc(Cl)ccc4F)nc3c2)C1 [Compound 1-49, 1-(6-(3-(5-chloro-2-fluorophenyl)-1H-pyrazol-4-yl)-1,5-naphthyridin-3-yl)-N-methylazetidin-3-amine]",≤ 20
0.0398 to 0.316,"NC1CN(c2cnc3ccc(-c4c[nH]nc4-c4cc(Cl)ccc4F)nc3c2)C1 [Compound 1-52, 1-[6-[3-(5-chloro-2-fluoro-phenyl)-1H-pyrazol-4-yl]-1,5-naphthyridin-3-yl]azetidin-3-amine]",≤ 20
0.0398 to 0.316,"CN(CCN1CCNCC1)c1cnc2ccc(-c3c[nH]nc3-c3cc(Cl)ccc3F)nc2c1 [Compound 1-53, 6-[3-(5-chloro-2-fluoro-phenyl)-1H-pyrazol-4-yl]-N-methyl-N-(2-piperazin-1-ylethyl)-1,5-naphthyridin-3-amine]",25.1 to 158
0.398 to 3.16,"Fc1ccc(Cl)cc1-c1n[nH]cc1-c1ccc2ncc(N3CC4CNCC43)cc2n1 (stereo not drawn) [Compound 1-54, 2-[3-(5-chloro-2-fluoro-phenyl)-1H-pyrazol-4-yl]-7-(3,6-diazabicyclo[3.2.0]heptan-6-yl)-1,5-naphthyridine]",25.1 to 158
≤ 0.0316,"NC1CCN(c2cnc3ccc(-c4c[nH]nc4-c4cc(Cl)ccc4F)nc3c2)C1 (stereo not drawn) [Compound 1-55, 1-[6-[3-(5-chloro-2-fluoro-phenyl)-1H-pyrazol-4-yl]-1,5-naphthyridin-3-yl]pyrrolidin-3-amine]",≤ 20
0.0398 to 0.316,"CNC1CCN(c2cnc3ccc(-c4c[nH]nc4-c4cc(Cl)ccc4F)nc3c2)C1 (stereo not drawn) [Compound 1-56, 1-[6-[3-(5-chloro-2-fluoro-phenyl)-1H-pyrazol-4-yl]-1,5-naphthyridin-3-yl]-N-methyl-pyrrolidin-3-amine]",≤ 20
0.0398 to 0.316,"NCCN1CCN(c2cnc3ccc(-c4c[nH]nc4-c4cc(Cl)ccc4F)nc3c2)CC1 [Compound 1-57, 2-[4-[6-[3-(5-chloro-2-fluoro-phenyl)-1H-pyrazol-4-yl]-1,5-naphthyridin-3-yl]piperazin-1-yl]ethanamine]",25.1 to 158

Compound,Ki [1] [nM],IC50 [2] [nM]
"CN1CCC(N(C)c2cnc3ccc(-c4c[nH]nc4-c4cc(Cl)ccc4F)nc3c2)CC1 [Compound 1-37, 6-[3-(5-chloro-2-fluoro-phenyl)-1H-pyrazol-4-yl]-N-methyl-N-(1-methyl-4-piperidyl)-1,5-naphthyridin-3-amine]",0.0398 to 0.316,25.1 to 158
"CCN1CCC(N(C)c2cnc3ccc(-c4c[nH]nc4-c4cc(Cl)ccc4F)nc3c2)CC1 [Compound 1-38, 6-[3-(5-chloro-2-fluoro-phenyl)-1H-pyrazol-4-yl]-N-(1-ethyl-4-piperidyl)-N-methyl-1,5-naphthyridin-3-amine]",0.398 to 3.16,25.1 to 158
